Measurements taken from the supplement of paper PMC8671470.
± gives the standard deviation of the averaged measurements.

What was measured:
Details in all cases: 72 h
[1] = system: myeloid leukemia patient primary cells Pat.15; assay: area under dose-response curve (viability, 1 nM-10 uM) (fraction (0-1)); higher = more sensitive
Procedure: (§1)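 AUC (0–1, higher = more sensitive) of the 5-point dose–response (1 nM–10 µM, 72 h, CellTiter-Glo) in primary AML/CML patient mononuclear cells. 0.030103 is the floor for inactive compounds.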

[2] = system: myeloid leukemia patient primary cells Pat.7; assay: as above
Procedure: as §1

[3] = system: myeloid leukemia patient primary cells Pat.9; assay: as above
Procedure: as §1

[4] = system: myeloid leukemia patient primary cells Pat.4; assay: as above
Procedure: as §1

[5] = system: myeloid leukemia patient primary cells Pat.3; assay: as above
Procedure: as §1

[6] = system: myeloid leukemia patient primary cells Pat.11; assay: as above
Procedure: as §1

[7] = system: myeloid leukemia patient primary cells Pat.8; assay: as above
Procedure: as §1

[8] = system: myeloid leukemia patient primary cells Pat.1; assay: as above
Procedure: as §1

[9] = system: myeloid leukemia patient primary cells Pat.2; assay: as above
Procedure: as §1

[10] = system: myeloid leukemia patient primary cells Pat.6; assay: as above
Procedure: as §1

[11] = system: myeloid leukemia patient primary cells Pat.14; assay: as above
Procedure: as §1

[12] = system: myeloid leukemia patient primary cells Pat.12; assay: as above
Procedure: as §1

[13] = system: myeloid leukemia patient primary cells Pat.5; assay: as above
Procedure: as §1

[14] = system: myeloid leukemia patient primary cells Pat.13; assay: as above
Procedure: as §1

[15] = system: myeloid leukemia patient primary cells Pat.15; assay: cell viability (% survival relative to DMSO control); higher = less cytotoxic
In short: (§2)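 Thawed, Ficoll-purified mononuclear cells from AML or CML patients in RPMI 1640 with 10% FBS were seeded at 10,000 cells/well on 384-well plates pre-printed with 70 compounds at five tenfold concentrations, 1–10,000 nM, in duplicate, for 72 h. Viability was read by CellTiter-Glo and normalised to DMSO and 10 μM proteasome-inhibitor wells. Where given, area under the curve came from four-parameter log-logistic fits (drc, PharmacoGx R packages).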

[16] = system: myeloid leukemia patient primary cells Pat.7; assay: as above
In short: as §2

[17] = system: myeloid leukemia patient primary cells Pat.11; assay: as above
In short: as §2

[18] = system: myeloid leukemia patient primary cells Pat.2; assay: as above
In short: as §2

[19] = system: myeloid leukemia patient primary cells Pat.10; assay: as above
In short: as §2

[20] = system: myeloid leukemia patient primary cells Pat.6; assay: as above
In short: as §2

HL-60 [21] = assay: cell viability (% survival relative to DMSO control); higher = less cytotoxic
In short: (§3)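 HL-60 cells in RPMI 1640 with 10% FBS were rescreened against the full library on 384-well plates at five tenfold concentrations, 1–10,000 nM, in duplicate. Each screen was run with DMSO or 100 nM of one of three metabolic inhibitors, for 72 h at 37 °C, 5% CO2. Viability was read by CellTiter-Glo and normalised to DMSO and 10 μM proteasome-inhibitor wells. Where given, area under the curve came from four-parameter log-logistic fits (drc, PharmacoGx).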

HL-60 [22] = assay: area under dose-response curve (viability, 1 nM-10 uM) (fraction (0-1)); higher = more sensitive
In short: as §3

[23] = system: myeloid leukemia patient primary cells Pat.10; assay: area under dose-response curve (viability, 1 nM-10 uM) (fraction (0-1)); higher = more sensitive
Procedure: as §1

CCN(CC)C(=S)SSC(=S)N(CC)CC [Disulfiram]
Details | area under dose-response curve
[1] | 0.623
[2] | 0.153
[3] | 0.257
[4] | 0.373
[5] | 0.164
[6] | 0.374
[7] | 0.503
[8] | 0.398
[9] | 0.512
[10] | 0.414
[11] | 0.19
[12] | 0.485
[13] | 0.303
[14] | 0.412

Details | area under dose-response curve, co-treatment: AZD3965 100 nM | area under dose-response curve, co-treatment: DMSO vehicle | area under dose-response curve, co-treatment: GSK2194069 100 nM | area under dose-response curve, co-treatment: pictilisib 100 nM | cell viability, 1 nM [%] | cell viability, 10 nM [%] | cell viability, 100 nM [%] | cell viability, 1000 nM [%] | cell viability, 10000 nM [%]
HL-60 [22] | < 0.0301 | < 0.0301 | < 0.0301 | < 0.0301 | – | – | – | – | –
[15] | – | – | – | – | 96.8 | 87.7 | 9.1 | 1.3 | 0.0644
[16] | – | – | – | – | 83.4 | 86.8 | 61.1 | 71.7 | < 0
[17] | – | – | – | – | 99.9 | 99.2 | 98.7 | 2.1 | 3.25
[18] | – | – | – | – | 95.6 | 93.9 | 39.1 | 0.978 | 3.7
[19] | – | – | – | – | 85 | 72.2 | 47.8 | 56.6 | > 100
[20] | – | – | – | – | 99.6 | 94.6 | 80.5 | 2.26 | 4.13

cell viability [%], HL-60 [21]
Details | 0.001 µM | 0.01 µM | 0.1 µM | 1 µM | 10 µM
co-treatment: AZD3965 100 nM | 104 ± 2.5 | 101 ± 6 | 98.7 ± 8.1 | 96.7 ± 4.4 | 101 ± 1.1
co-treatment: DMSO vehicle | 100.9 ± 0.6 | 100.4 ± 0.73 | 105 ± 3.3 | 94 ± 5.5 | 98.66 ± 0.82
co-treatment: GSK2194069 100 nM | 100 ± 2.3 | 95.7 ± 15 | 102 ± 7 | 93.1 ± 2.8 | 102 ± 2.9
co-treatment: pictilisib 100 nM | 105.2 ± 0.96 | 86.4 ± 37 | 107 ± 2.5 | 71.25 ± 0.41 | 102 ± 15

CN(Cc1cnc2nc(N)nc(N)c2n1)c1ccc(C(=O)N[C@@H](CCC(=O)O)C(=O)O)cc1 [Methotrexate]
Details | area under dose-response curve
[1] | < 0.0301
[2] | 0.399
[3] | 0.526
[4] | < 0.0301
[5] | 0.469
[6] | < 0.0301
[7] | < 0.0301
[8] | < 0.0301
[10] | < 0.0301
[11] | 0.306
[12] | < 0.0301
[13] | 0.384
[14] | < 0.0301
[23] | 0.294

Details | area under dose-response curve, co-treatment: AZD3965 100 nM | area under dose-response curve, co-treatment: DMSO vehicle | area under dose-response curve, co-treatment: GSK2194069 100 nM | area under dose-response curve, co-treatment: pictilisib 100 nM | cell viability, 1 nM [%] | cell viability, 10 nM [%] | cell viability, 100 nM [%] | cell viability, 1000 nM [%] | cell viability, 10000 nM [%]
HL-60 [22] | 0.618 | 0.523 | 0.515 | 0.544 | – | – | – | – | –
[15] | – | – | – | – | 95.4 | 89.3 | > 100 | 80.5 | 91.1
[16] | – | – | – | – | 94.1 | 89.1 | 56.6 | 15.2 | 34.5
[17] | – | – | – | – | 96.2 | 98.4 | 97.3 | 81.7 | 95.5
[18] | – | – | – | – | 98.8 | 96.8 | 98.1 | 75.3 | 63.1
[19] | – | – | – | – | 68.8 | 42.2 | 80.2 | 23 | 15.2
[20] | – | – | – | – | 99.7 | 95.8 | 97.1 | 67.7 | 92

cell viability [%], HL-60 [21]
Details | 0.001 µM | 0.01 µM | 0.1 µM | 1 µM | 10 µM
co-treatment: AZD3965 100 nM | 108 ± 5.9 | 50.6 ± 35 | 28 ± 3.4 | 26.3 ± 3.6 | 26.8 ± 2.2
co-treatment: DMSO vehicle | 101.2 ± 0.11 | 68.4 ± 33 | 42.4 ± 1.4 | 32.7 ± 2.7 | 41.2 ± 2.6
co-treatment: GSK2194069 100 nM | 110 ± 3 | 72.4 ± 38 | 39 ± 4 | 27.9 ± 3.6 | 29.7 ± 2.2
co-treatment: pictilisib 100 nM | 104 ± 12 | 69.8 ± 32 | 32.358 ± 0.03 | 27.3 ± 2.5 | 28.1 ± 2.8

CN1CCN(CCCN2c3ccccc3Sc3ccc(C(F)(F)F)cc32)CC1 [Trifluoperazine]
Details | area under dose-response curve
[1] | 0.102
[2] | 0.517
[3] | 0.423
[4] | 0.162
[5] | 0.429
[6] | 0.174
[7] | 0.106
[8] | 0.209
[9] | 0.108
[10] | 0.187
[11] | 0.294
[12] | 0.0812
[13] | 0.36
[14] | 0.182
[23] | 0.362

cell viability [%]
Details | [15] | [16] | [17] | [18] | [19] | [20]
1 nM | 98.2 | 87.1 | > 100 | > 100 | 55.5 | 98.8
10 nM | 91.9 | 68.6 | 100 | > 100 | 91.7 | 94.2
100 nM | > 100 | 42.7 | 99.9 | > 100 | 70.3 | 97.8
1000 nM | 78.4 | < 0 | 77.4 | 75.6 | 13.3 | 63.5
10000 nM | 45.9 | < 0 | 12 | 48.6 | 9.9 | 23.8

cell viability [%], HL-60 [21]
Details | 0.001 µM | 0.01 µM | 0.1 µM | 1 µM | 10 µM
co-treatment: AZD3965 100 nM | 101 ± 4.4 | 100 ± 3.1 | 97.8 ± 3.9 | 101 ± 6 | 81.7 ± 4.7
co-treatment: DMSO vehicle | 101.2 ± 0.65 | 103 ± 3.3 | 102 ± 2.1 | 102 ± 5.6 | 90.6 ± 3.6
co-treatment: GSK2194069 100 nM | 94 ± 5.5 | 101 ± 10 | 96 ± 7.1 | 101 ± 4.1 | 70.4 ± 2.5
co-treatment: pictilisib 100 nM | 97 ± 1.4 | 95.9 ± 4.1 | 108 ± 18 | 97.2 ± 18 | 47.7 ± 3.9

Cn1cc(-c2ccncc2)c(-c2ccc(OCc3ccc4ccccc4n3)cc2)n1
Details | area under dose-response curve
[1] | < 0.0301
[2] | 0.309
[3] | 0.694
[4] | < 0.0301
[5] | 0.219
[6] | < 0.0301
[7] | < 0.0301
[8] | < 0.0301
[9] | < 0.0301
[11] | 0.183
[12] | < 0.0301
[13] | 0.938
[14] | 0.067
[23] | 0.163

cell viability [%]
Details | [15] | [16] | [17] | [18] | [19] | [20]
1 nM | 94.3 | 90.5 | 99.1 | 94.2 | 95 | 94.1
10 nM | 84.7 | 73.5 | 98.1 | 94.8 | 65 | 88.2
100 nM | 97.6 | 82.7 | > 100 | 98.5 | 78.5 | 95.8
1000 nM | 83.1 | 17.1 | 87.9 | 77.3 | 44.2 | 73.5
10000 nM | 75.2 | 32.4 | 99.3 | 80.2 | 54.7 | 68.8
